Structures can show the parent of a compound that is named as a salt.
Columns and labels:
[1] = test system: HUVEC (normal human umbilical vein endothelial cells); test: VEGF-induced HUVEC proliferation: cell proliferation inhibitory action test; assay type: cell-based; conditions: 72 h, 5 μL of 20 μg/mL test compound solution per well, WST-8 absorbance at 450 nm three days after VEGF addition, read-out: Cell proliferation inhibition rate (%);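 also: each well holds 100 µL cell suspension before compound addition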
How it was run: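 HUVECs in 0.5% FBS F12K on type I collagen were pretreated 1 h with compound (20 μg/mL solution in PBS from DMSO stock, 5 μL/well), then stimulated with VEGF (400 ng/mL solution). After 3 days at 37 °C, viability was read by WST-8 A450. Inhibition % was calculated against a 1.0% DMSO control, minus cell+medium blank.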

[2] = test system: choroidal neovascularization models in rats; test: Neovascularization incidence test using laser-induced choroidal neovascularization models in rats; assay type: in vivo; conditions: 168 h; Brown Norway rat, krypton laser photocoagulation; 30 mg/kg/day oral once a day for 7 days; fluorescein fundus photography on day 7; average of 3 to 4 rats and 6 to 8 eyes; read-out: Ratio of neovascularization incidence rate (% of Control)
Method: A neovascularization incidence test of the compounds of the present invention was performed using a choroidal neovascularization model in rats, which is one of the widely-used methods of evaluating in vivo choroidal neovascularization inhibitory effects of drugs.
As one of the widely-used methods of evaluating choroidal neovascularization inhibitory effects of drugs, a neovascularization incidence test using choroidal neovascularization models in rats was reported in Graefe's Arch. Cli. Exp. Ophthalmol., 235, 313-319 (1997). According to the method described in the above-mentioned document, a neovascularization incidence test of the compounds of the present invention was performed, the ratio of neovascularization incidence rate of each of the compounds of the present invention administration groups to a neovascularization incidence rate of vehicle administration group (control group) was calculated, and the choroidal neovascularization inhibitory effect of each of the compounds of the present invention was evaluated using the obtained ratio as an index.
A 1% aqueous methyl cellulose solution was added to each test compound to suspend it, whereby a 6 mg/10 mL test compound suspension was prepared.
• 1) A 7:1 mixed solution (1 mL/kg) of a 5% ketamine hydrochloride injection and a 2% xylazine hydrochloride injection was administered intramuscularly to rats (Brown Norway male rat, 8 weeks of age, weight: 200 to 250 g) to anesthetize them systemically. • 2) A tropicamide-phenylephrine hydrochloride ophthalmic solution (trade name: Mydrin-P) was instilled into eyes to cause mydriasis, and then photocoagulation was performed in a Bruch's membrane of each rat using a krypton laser photocoagulation apparatus.
The laser photocoagulation was performed at 8 spots per eye sparsely avoiding thick retinal vessels in a posterior section of ocular fundus and focusing on the deep layer of the retina. Photocoagulation conditions were adjusted to 100 μm of spot size, 100 mW of intensity and 0.1 sec. dulation. • 3) After the photocoagulation, the ocular fundus was photographed to confirm photocoagulation (laser irradiation) sites. (Method of Test and Method of Measurement) • 1) From the laser photocoagulation day (i.e. on day 0) to day 6, the test compound suspension (30 mg/kg/day) was administered orally once a day for 7 consecutive days. • 2) As the vehicle administration group (control group), a test was performed in the same manner as in 1) except that the 1% aqueous methyl cellulose solution was used instead of the test compound suspension, and the result was used as a control. (Method of Evaluation) • 1) On day 7 after the photocoagulation, 0.1 mL of a 10% aqueous fluorescein solution was injected into a tail vein of the rat, and fluorescein fundus photography was performed. • 2) Next, in the fluorescein fundus photography, a spot where fluorescence leak was not observed was judged as negative, and a spot where fluorescence leak was observed was judged as positive. Photocoagulation sites where a little fluorescence leak was observed were judged as positive when two such sites are present. • 3) The neovascularization incidence rate was calculated according to the calculation equation 1. The ratio of the neovascularization incidence rate of the test compound administration group to that of the vehicle administration group was calculated according to the calculation equation 2 using the neovascularization incidence rate of the respective administration groups. […]

SMILES	inhibition at 20 µg/mL (stock) [1] [%]	response vs control in vivo at 30 mg/kg/day [2] [%]
CC(=O)OCC(=O)Nc1cc(CSc2ncccc2C(=O)Nc2cc(C)cc(C)c2)ccn1 [Compound 10-1, 2-(2-Acetoxyacetylaminopyridin-4-ylmethylthio)-N-(3,5-dimethylphenyl)pyridine-3-carboxamide]	100	11
CC(=O)Nc1cc(CSc2ncccc2C(=O)Nc2ccc(Cl)cc2)ccn1 [Compound 4-10, 2-(2-Acetylaminopyridin-4-ylmethylthio)-N-(4-chlorophenyl)pyridine-3-carboxamide]	100	9
O=C(CO)Nc1cc(CSc2ncccc2C(=O)Nc2ccc(OC(F)(F)F)cc2)ccn1 [Compound 12-1, 2-(2-Hydroxyacetylaminopyridin-4-ylmethylthio)-N-(4-trifluoromethoxyphenyl)pyridine-3-carboxamide]	78	6
Cc1cc(C)cc(NC(=O)c2cccnc2SCc2ccnc(N)c2)c1 [Compound 3-1, 2-(2-Aminopyridin-4-ylmethylthio)-N-(3,5-dimethylphenyl)pyridine-3-carboxamide monohydrochloride]	100	12
CC(=O)Nc1cc(CSc2ncccc2C(=O)Nc2cc(C)cc(C)c2)ccn1 [Compound 4-1, 2-(2-Acetylaminopyridin-4-ylmethylthio)-N-(3,5-dimethylphenyl)pyridine-3-carboxamide]	100	3
Nc1cc(CSc2ncccc2C(=O)Nc2ccc(OC(F)(F)F)cc2)ccn1 [Compound 3-10, 2-(2-Aminopyridin-4-ylmethylthio)-N-(4-trifluoromethoxyphenyl)pyridine-3-carboxamide]	97	7
CNc1cc(CSc2ncccc2C(=O)Nc2ccc(OC(F)(F)F)cc2)ccn1 [Compound 3-8, 2-(2-Methylaminopyridin-4-ylmethylthio)-N-(4-trifluoromethoxyphenyl)pyridine-3-carboxamide monohydrochloride]	100	6
CC(=O)Nc1cc(CSc2ncccc2C(=O)Nc2ccc(OC(F)(F)F)cc2)ccn1 [Compound 4-11, 2-(2-Acetylaminopyridin-4-ylmethylthio)-N-(4-trifluoromethoxyphenyl)pyridine-3-carboxamide]	93	0
CNC(=O)Nc1cc(CSc2ncccc2C(=O)Nc2cc(C)cc(C)c2)ccn1 [Compound 9-1, N-(3,5-Dimethylphenyl)-2-[2-(N′-methylureido)pyridin-4-ylmethylthio]pyridine-3-carboxamide]	100	8
